Source: patent publication US12162901B2, “N-acetylated sialic acids and related sialosides” (priority 2016, dated 2024)

Assays:
[1] = target: T1, SpNanC (Streptococcus pneumoniae, UniProt A0A0H2UQE4); assay: HPLC-based kinetic study of SpNanC; format: biochemical; details: for kcat: SpNanC, apparent, MES buffer pH 6.5, 37° C., 10 min, spread and × 10^2 on wrapped line below
Method: (§1) HPLC-based assays were carried out as described above for microtiter plate-based assays. The reactions were stopped by adding 40 μL of pre-chilled ethanol. The mixtures were then centrifuged and the supernatants were analyzed by Agilent 1290 Infinity HPLC system at 315 nm. […] A C18 reverse phase Rapid Resolution High Definition column (EclipsePlusC18 RRHD 1.8 μm, 2.1×50 mm, Agilent) was used for analyzing samples with Neu5Ac9NAcα2-3GalβpNP (2.1) or Neu5,9Ac2α2-6GalβpNP (2.20).
After stopping the reactions by adding 40 μL of pre-chilled ethanol, the mixtures were centrifuged and the supernatants were analyzed by the HPLC system as described above. Apparent kinetic parameters were obtained by varying substrate concentrations from 0.1-40 mM (0.1, 0.2, 0.4, 1, 2, 4, 10, 20, and 40 mM) and fitting the data (the average values of duplicate assay results) into the Michaelis-Menten equation using Grafit 5.0.

[2] = target: T2, BiNanH2 (Bifidobacterium longum, UniProt A0ACD7UU12); assay: HPLC-based kinetic study of BiNanH2; format: biochemical, Bifidobacterium infantis; details: for kcat: BiNanH2, apparent, NaOAc buffer pH 5.0, 37° C., 10 min, spread and × 10^2 on wrapped line below; for activity of BiNanH2 towards the substrate: kinetic study, HPLC
T2 sequence (A0ACD7UU12 1-394): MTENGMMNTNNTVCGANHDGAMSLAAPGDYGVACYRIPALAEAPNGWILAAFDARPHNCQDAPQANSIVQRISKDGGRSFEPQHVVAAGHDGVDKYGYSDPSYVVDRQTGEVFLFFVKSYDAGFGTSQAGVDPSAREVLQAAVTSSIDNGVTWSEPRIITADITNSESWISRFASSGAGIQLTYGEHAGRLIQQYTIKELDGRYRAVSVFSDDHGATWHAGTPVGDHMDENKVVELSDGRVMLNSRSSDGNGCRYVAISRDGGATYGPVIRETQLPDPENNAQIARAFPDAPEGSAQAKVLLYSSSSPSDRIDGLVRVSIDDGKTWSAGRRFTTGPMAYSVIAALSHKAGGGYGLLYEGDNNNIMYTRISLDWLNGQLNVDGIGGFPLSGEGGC
Method: as §1
The reactions were stopped by adding 40 μL of pre-chilled ethanol. The mixtures were then centrifuged and the supernatants were analyzed by the HPLC system described above for HPLC-based assays. Apparent kinetic parameters were obtained by varying substrate concentrations from 0.1-40 mM (0.1, 0.2, 0.4, 1, 2, 4, 10, 20, and 40 mM) and fitting the data (the average values of duplicate assay results) into the Michaelis-Menten equation using Grafit 5.0.

[3] = target: T3, human cytosolic sialidase hNEU2 (Homo sapiens, UniProt Q9Y3R4); assay: Sialidase substrate specificity of Leg glycosides (HPLC/capillary electrophoresis), hNEU2; format: biochemical; details: 37° C., 16 hs, pH 5.0
T3 construct: made in house

[4] = test system: A. ureafaciens sialidase; assay: Sialidase substrate specificity of Leg glycosides (HPLC/capillary electrophoresis), A. ureafaciens sialidase; format: biochemical, Arthrobacter ureafaciens; details: pH 5.5
[5] = target: T4, V. cholerae sialidase (Vibrio cholerae serotype O1, UniProt P0C6E9); assay: Sialidase substrate specificity of Leg glycosides (HPLC/capillary electrophoresis), V. cholerae sialidase; format: biochemical; details: pH 5.5
T4 construct: purchased Roche

[6] = target: C. perfringens sialidase (CpNanH) (Clostridium perfringens, UniProt P10481); format: biochemical; details: 37° C., 16 hs, pH 5.0
[7] = target: T2, BiNanH2; assay: Sialidase substrate specificity of Leg glycosides (HPLC/capillary electrophoresis), BiNanH2; format: biochemical, Bifidobacterium infantis; details: 37° C., 16 hs, pH 5.0
[8] = target: T5, SpNanA (Streptococcus pneumoniae, UniProt P62575); assay: Sialidase substrate specificity of Leg glycosides (HPLC/capillary electrophoresis), SpNanA; format: biochemical; details: 37° C., 16 hs, pH 6.0
T5 construct: made in house

[9] = target: T6, SpNanB (Streptococcus pneumoniae serotype 4, UniProt Q54727, E68D/K536E/K577E/N393D/S59P); assay: Sialidase substrate specificity of Leg glycosides (HPLC/capillary electrophoresis), SpNanB; format: biochemical; details: 37° C., 16 hs, pH 6.0
T6 construct: made in house

[10] = target: T1, SpNanC; assay: Sialidase substrate specificity of Leg glycosides (HPLC/capillary electrophoresis), SpNanC; format: biochemical; details: 37° C., 16 hs, pH 6.5
[11] = substrate: CC(=O)N[C@@H]1C(O)C[C@](OC2C(O)[C@H](Oc3ccc([N+](=O)[O-])cc3)OC(CO)[C@@H]2O)(C(=O)O)OC1[C@H](NC(C)=O)[C@@H](C)O; assay: Kinetic studies for PmST1 α2-3-sialidase activity (HPLC); format: biochemical, Pasteurella multocida; details: other: PmST1, apparent, NaOAc buffer pH 5.5, CMP (0.4 mM), 37° C., 10 min
Method: (§2) Kinetic studies for PmST1 were performed in duplicates at 37° C. for 10 min. […] The reactions were stopped by adding 20 μL of pre-chilled ethanol. The mixtures were then centrifuged and the supernatants were analyzed by the HPLC system described above for sialidase substrate specificity studies assays. Apparent kinetic parameters were obtained by varying substrate concentrations from 0.1-40 mM (0.1, 0.2, 0.4, 1, 2, 4, 10, 20, and 40 mM) and fitting the data (the average values of duplicate assay results) into the Michaelis-Menten equation using Grafit 5.0.

[12] = substrate: CC(=O)N[C@H]1[C@H]([C@H](O)[C@H](O)CO)O[C@@](O[C@H]2[C@@H](O)[C@@H](CO)O[C@@H](Oc3ccc([N+](=O)[O-])cc3)[C@@H]2O)(C(=O)O)C[C@@H]1O; assay: as above; format: biochemical, Pasteurella multocida; details: other: PmST1, apparent, NaOAc buffer pH 5.5, CMP (0.4 mM), 37° C., 10 min
Method: as §2

T3 sequence (Q9Y3R4 whole entry): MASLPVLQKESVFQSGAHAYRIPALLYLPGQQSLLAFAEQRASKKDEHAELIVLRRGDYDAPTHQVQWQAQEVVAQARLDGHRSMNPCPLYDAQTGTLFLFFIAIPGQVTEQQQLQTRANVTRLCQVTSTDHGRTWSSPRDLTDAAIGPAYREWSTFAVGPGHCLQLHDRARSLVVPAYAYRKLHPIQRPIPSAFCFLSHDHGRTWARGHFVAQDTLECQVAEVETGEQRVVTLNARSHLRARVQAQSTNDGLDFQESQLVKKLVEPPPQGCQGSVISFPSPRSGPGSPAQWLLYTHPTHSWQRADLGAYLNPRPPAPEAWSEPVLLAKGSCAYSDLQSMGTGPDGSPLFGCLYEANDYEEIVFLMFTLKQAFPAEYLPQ

With CC(=O)N[C@H]1[C@H]([C@H](O)[C@H](O)CO)O[C@@](O[C@H]2[C@@H](O)[C@@H](CO)O[C@@H](Oc3ccc([N+](=O)[O-])cc3)[C@@H]2O)(C(=O)O)C[C@@H]1O [2.17, Neu5Acα2-3GalβpNP] the kcat [1] was “(3.65 × 10^2 s^−1” and the kcat [2] was “(1.66 × 10^2 s^−1”.

CC(=O)NC[C@@H](O)[C@@H](O)[C@@H]1O[C@@](O[C@H]2[C@@H](O)[C@@H](CO)O[C@@H](Oc3ccc([N+](=O)[O-])cc3)[C@@H]2O)(C(=O)O)C[C@H](O)[C@H]1NC(C)=O [2.1, 4-Nitrophenyl O-(5,9-diacetamido-3,5,9-trideoxy-D-glycero-α-D-galacto-2-nonulopyranosylonic acid)-(2→3)-O-β-D-galactopyranoside] was tested, and the kcat [1] was “(3.38 × 10^2 s^−1” and the kcat [2] was “(1.08 × 10^2 s^−1”.

With CC(=O)NC[C@@H](O)[C@@H](O)[C@@H]1O[C@@](OC[C@H]2O[C@@H](Oc3ccc([N+](=O)[O-])cc3)[C@H](O)[C@@H](O)[C@H]2O)(C(=O)O)C[C@H](O)[C@H]1NC(C)=O [2.8, 4-Nitrophenyl O-(5,9-diacetamido-3,5,9-trideoxy-D-glycero-α-D-galacto-2-nonulopyranosylonic acid)-(2→6)-O-β-D-galactopyranoside] the kcat [2] was “(8.07 × 10^2 s^−1”.

In the case of CC(=O)N[C@@H]1C(O)C[C@](OCC2O[C@@H](Oc3ccc([N+](=O)[O-])cc3)C(O)C(O)[C@H]2O)(C(=O)O)OC1[C@H](NC(C)=O)[C@@H](C)O (stereo partly drawn) [3-20, Leg5,7Ac2α2-6GalβpNP], the “activity of hNEU2 for the compound” value [3] is reported as “did not show activity”, the “activity of A. ureafaciens sialidase for the compound” value [4] is reported as “did not show activity” and the “activity of V. cholerae sialidase for the compound” value [5] is reported as “did not show activity”. For the same molecule, the “activity of C. perfringens sialidase (CpNanH) for the compound” value [6] was “did not show activity”, the “activity of BiNanH2 for the compound” value [7] was “did not show activity” and the “activity of SpNanA for the compound” value [8] was “did not show activity”. The “activity of SpNanB for the compound” value [9] was “did not show activity” and the “activity of SpNanC for the compound” value [10] was “did not show activity”.

C[C@@H](O)[C@@H](N=[N+]=[N-])C1O[C@@](OCC2O[C@@H](Oc3ccc([N+](=O)[O-])cc3)C(O)C(O)[C@H]2O)(C(=O)O)CC(O)[C@H]1N=[N+]=[N-] (stereo partly drawn) [3-14, Leg5,7diN3α2-6GalβpNP] was tested, and the “activity of hNEU2 for the compound” value [3] was “did not show activity”, the “activity of A. ureafaciens sialidase for the compound” value [4] was “did not show activity” and the “activity of V. cholerae sialidase for the compound” value [5] was “did not show activity”. The “activity of C. perfringens sialidase (CpNanH) for the compound” value [6] was “did not show activity”, the “activity of BiNanH2 for the compound” value [7] was “did not show activity” and the “activity of SpNanA for the compound” value [8] was “did not show activity”. The “activity of SpNanB for the compound” value [9] was “did not show activity” and the “activity of SpNanC for the compound” value [10] was “did not show activity”.

CC(=O)NC1C(O)CC(OCC2OC(Oc3ccc([N+](=O)[O-])cc3)C(O)C(O)C2O)(C(=O)O)OC1C(O)C(O)COC(C)=O (stereo not drawn) [2.20, Neu5,9Ac2α2-6GalβpNP] was tested, and the “activity of BiNanH2 towards the substrate” value [2] was “not high enough for obtaining apparent kinetics parameters”.

In the case of CC(=O)N[C@H]1[C@H]([C@H](O)[C@H](O)CO)O[C@@](OC[C@H]2O[C@@H](Oc3ccc([N+](=O)[O-])cc3)[C@H](O)[C@@H](O)[C@H]2O)(C(=O)O)C[C@@H]1O [2.18, Neu5Acα2-6GalβpNP], the kcat [2] is reported as “(3.31 × 10^2 s^−1”.

For CC(=O)N[C@H]1[C@H]([C@H](O)[C@H](O)COC(C)=O)O[C@@](O[C@H]2[C@@H](O)[C@@H](CO)O[C@@H](Oc3ccc([N+](=O)[O-])cc3)[C@@H]2O)(C(=O)O)C[C@@H]1O [2.19, Neu5,9Ac2α2-3GalβpNP], the “catalytic efficiency of SpNanC, fold higher than for 2.1 and 2.17” value ([1]; SpNanC kcat/KM ratio) was 2.2-2.3 fold, the kcat [1] was “(3.78 × 10^2 s^−1” and the “activity of BiNanH2 towards the substrate” value [2] was “not high enough for obtaining apparent kinetics parameters”.

B1: PmST1 (α2-3-sialidase activity) (Pasteurella multocida) (protein)
chain: KTITLYLDPASLPALNQLMDFTQNNEDKTHPRIFGLSRFKIPDNIITQYQNIHFVELKDNRPTEALFTILDQYPGNIELNIHLNIAHSVQLIRPILAYRFKHLDRVSIQQLNLYDDGSMEYVDLEKEENKDISAEIKQAEKQLSHYLLTGKIKFDNPTIARYVWQSAFPVKYHFLSTDYFEKAEFLQPLKEYLAENYQKMDWTAYQQLTPEQQAFYLTLVGFNDEVKQSLEVQQAKFIFTGTTTWEGNTDVREYYAQQQLNLLNHFTQAEGDLFIGDHYKIYFKGHPRGGEINDYILNNAKNITNIPANISFEVLMMTGLLPDKVGGVASSLYFSLPKEKISHIIFTSNKQVKSKEDALNNPYVKVMRRLGIIDESQVIFWDSLKQL
In the case of B1, the Km [11] is reported as 17.38 ± 0.70 mM, the kcat [11] is reported as 1.16 ± 0.0217 s⁻¹ and the kcat/Km [11] is reported as 66.7 M⁻¹ s⁻¹. For the same molecule, the Km [12] was 4.73 ± 0.31 mM, the kcat [12] was 9.26 ± 0.185 s⁻¹ and the kcat/Km [12] was 1950 M⁻¹ s⁻¹.
